According to patent publication EP4574175A1, “PRODRUG FOR ANTI-AGING RELATED DISEASES AND USE METHOD THEREFOR” (BEIJING SUNCELL BIO-MEDICAL CO., LTD., priority 2022, dated 2024):
Like-named read-outs stand apart in the source and are kept apart here.

Legend:
in vitro [1] = settings: mouse
Method: […] Samples were taken and analyzed at time points 0, 15, 30, 45 and 60 minutes during the incubation. The reaction was terminated by adding an amount of acetonitrile solution containing the internal standard. […] The residual percentage, half-life, intrinsic clearance, amplified clearance, hepatic clearance and hepatic extraction ratio were determined. The entire experiment was performed in triplicate. All data calculations were performed by Microsoft Excel software. Peak areas were detected by extracting the ionic spectrum. The in vitro half-life (t1/2) of the parent compound was detected by fitting the natural logarithm of the percentage elimination of the parent compound linearly to time.
The in vitro intrinsic clearance (in µL/min/mg protein) was calculated using the following equation: in vitro CLint = kV/N
The amplified clearance (in mL/min/kg) was calculated using the following equation: Amplified CLint = kV/N × the amplification factor [formula]
The hepatic clearance (in mL/min/kg) was calculated using the following equation: The predicted hepatic CLH = (Q×Fu/RB×theamplifiedCLint)/([…]) [formula] • V = the incubation volume per well (0.2 mL); • N = the total amount of protein (mg) • Q = the hepatic blood flow (mL/min/kg) • Fu = the plasma free rate (assumed to be 1) • RB = the whole blood partition coefficient (assumed to be 1)
The hepatic […] was calculated using the following equation: The hepatic extraction ratio(ER) = (thepredictedhepaticCLH)/Q [formula]

[2] = human, 1 µM
[3] = monkey, 1 µM
[4] = dog, 1 µM
[5] = rat, 1 µM
in vitro [6] = settings: human
in vitro [7] = settings: monkey
in vitro [8] = settings: dog
in vitro [9] = settings: rat

CLint scaled at 1 µM (in vitro [1]): 87.8 mL/min/kg
The hepatic extraction ratio (E) (in vitro [1]; 1 µM): 0.98
CLint scaled at 1 µM (in vitro [1]; microsomes): 3630 mL/min/kg
half-life at 1 µM (in vitro [1]; microsomes): 1.68 min
microsomal CLint at 1 µM (in vitro [1]; microsomes): 824 µL/min/mg
The hepatic extraction ratio (E) [2]: 0.97
The hepatic extraction ratio (E) [3]: 0.97
The hepatic extraction ratio (E) [4]: 0.99
The hepatic extraction ratio (E) [5]: 0.95
CLint scaled at 1 µM (in vitro [6]): 20.2 mL/min/kg
CLint scaled at 1 µM (in vitro [6]; microsomes): 774 mL/min/kg
half-life at 1 µM (in vitro [6]; microsomes): 2.25 min
microsomal CLint at 1 µM (in vitro [6]; microsomes): 617 µL/min/mg
CLint scaled at 1 µM (in vitro [7]; The predicted intrinsic hepatic clearance Cl int): 42.1 mL/min/kg
half-life at 1 µM (in vitro [7]; microsomes): 1.72 min
microsomal CLint at 1 µM (in vitro [7]; microsomes): 806 µL/min/mg
CLint scaled at 1 µM (in vitro [7]; microsomes, The amplified intrinsic clearance Cl int): 1210 mL/min/kg
CLint scaled at 1 µM (in vitro [8]): 30.4 mL/min/kg
CLint scaled at 1 µM (in vitro [8]; microsomes): 2050 mL/min/kg
half-life at 1 µM (in vitro [8]; microsomes): 1.68 min
microsomal CLint at 1 µM (in vitro [8]; microsomes): 824 µL/min/mg
CLint scaled at 1 µM (in vitro [9]): 52.3 mL/min/kg
CLint scaled at 1 µM (in vitro [9]; microsomes): 1010 mL/min/kg
half-life at 1 µM (in vitro [9]; microsomes): 2.47 min
microsomal CLint at 1 µM (in vitro [9]; microsomes): 562 µL/min/mg
Structure (SMILES): O=c1ccc2ccc(O)cc2o1 [7-hydroxycoumarin]
